Laboratory results: patent US5997843A, “Radiometal complexes that localise in hypoxic tissue” (priority 1993, dated 1999)
Entries after “also recorded” stand apart in the source; their conditions may differ. Like-named read-outs stand apart in the source and are kept apart here.

Key:
[1] = tested on: isolated (Langendorff) rat hearts; experiment: Isolated perfused heart (Langendorff), hypoxic vs oxic uptake/retention; conditions: for Hypoxic/Oxic Ratio (H/O): ^99m Tc complex (or ^123 I-IAZA), 20 min infusion, 15 min washout; for normalised hypoxic retention, times greater than ^3 H misonidazole: isolated buffer perfused rat heart model; for Normalised Hypoxic Retention: relative to ^3 H-misonidazole activity
Description: A 15-minute cold buffer washout period follows. y activity in the heart is monitored using a collimated NaI probe detector positioned over the heart.
Activity in hearts, relative to perfusate activity, is calculated for each nuclide and data evaluated for each compound for activity in hypoxic and oxic hearts (hypoxic:oxic ratio) and also relative to the 3 H-misonidazole activity (normalised retention) using Formula 1. [formula] Results

Biodistribution in rats = format: in vivo, male rats; conditions: i.v.
Description: Biodistribution in Rats--Methods
The quantitative biodistribution was studied in male rats at 2 minutes, 1 hour and 4 hours post-injection
Rats under light anaesthesia were injected intravenously with 0.1 ml of test agent. Three rats were sacrificed (anaesthesia followed by exsanguination) at 2, 60 and 240 minutes, post-injection. The percentage of the injected dose in the excreta and organs and tissues was determined by dissection and assay for radioactivity in an automatic gamma counter.

xanthine oxidase [2] = experiment: Xanthine oxidase (XOD) with hypoxanthine in PBS reduction test; format: biochemical; conditions: ^99m Tc complex, HPLC
Description: b) Xanthine Oxidase (XOD) with Hypoxanthine in Phosphate Buffered Saline (PBS)
Xanthine oxidase (16 mg) was weighed into a P6 vial. the vial was capped, oversealed and purged with nitrogen gas. Nitrogen purged phosphate buffered saline (1 ml) was added to the vial containing the xanthine oxidase.
Hypoxanthine (4.1 mg) was weighed into a P6 vial. The vial was capped, oversealed and purged with nitrogen gas. To the hypoxanthine was added (1 ml) of the xanthine oxidase in PBS.
1 ml of the ligand solution or 1 ml of the ^99m Tc-complex preparation was then added to the reducing mixture, shaken, and aliquots were taken at 20 minute time intervals.

[3] = rat, cited from earlier work
xanthine oxidase [4] = conditions: ^99 Tc complex; cited from earlier work
[5] = 2 min post-injection, ^99m Tc complex
[6] = 240 min post-injection (third printed value)
[7] = second of two values, 60 or 240 min not assignable

SMILES	hypoxia selectivity / hypoxic/oxic ratio / hypoxic retention (in words) [1]	Hypoxic/Oxic Ratio (H/O) [1]	normalised hypoxic retention, times greater than ^3 H misonidazole [1]	Normalised Hypoxic Retention [1]	Bladder/Urine (Biodistribution in rats; 2 min post-injection)	Blood (Biodistribution in rats; 2 min post-injection)	Gut (Biodistribution in rats; 2 min post-injection)	Kidney (Biodistribution in rats; 2 min post-injection)	Liver (Biodistribution in rats; 2 min post-injection)	Muscle (Biodistribution in rats; [5])	Gut (Biodistribution in rats; 60 min post-injection)	Muscle (Biodistribution in rats; 60 min post-injection)	Muscle (Biodistribution in rats; [6])	Gut (Biodistribution in rats; 240 min post-injection)	Blood (Biodistribution in rats; [7])	Kidney (Biodistribution in rats; [7])	Liver (Biodistribution in rats; [7])	Xanthine oxidase reduction test result (xanthine oxidase [2])	further results
CC(=NO)C(C)(C)NCCCCNC(C)(C)C(C)=NO [Compound I, 4,9-diaza-3,3,10,10-tetramethyldodecan-2,11',-dione dioxime]	significantly greater than seen for other ^99m Tc test agents and ^123 I-IAZA; also recorded: greater than that for ^99m Tc-PnAO; also recorded: at least equivalent to ^123 I-IAZA; also recorded: significantly greater hypoxic cell selectivity than the corresponding nitroimidazole conjugate	54	at least 2 times	2.2	0.6 percent injected dose	9.7 percent injected dose	11.2 percent injected dose	7.5 percent injected dose	10.6 percent injected dose	35.2 percent injected dose	22.3 percent injected dose	12.5 percent injected dose	3.5 percent injected dose	24.4 percent injected dose	2.4 percent injected dose	5.6 percent injected dose	9.1 percent injected dose	positive	brain uptake ([3]; 30 sec pi, ^99m Tc complex): 0.12 % injected dose
CC(=NO)C(C)(C)NCCCCNC(C)(C)C(Cn1ccnc1[N+](=O)[O-])=NO [Compound II]	significantly greater than seen for other ^99m Tc test agents and ^123 I-IAZA; also recorded: greater than that for ^99m Tc-PnAO; also recorded: at least equivalent to ^123 I-IAZA	28	at least 2 times	5.1	1.0 percent injected dose	8.4 percent injected dose	13.4 percent injected dose	13.1 percent injected dose	15.5 percent injected dose	26.1 percent injected dose	40.0 percent injected dose	6.6 percent injected dose	3.1 percent injected dose	49.9 percent injected dose	1.3 percent injected dose	1.4 percent injected dose	11.4 percent injected dose	positive	–
CC(=NO)C(C)(C)NCCCCCNC(C)(C)C(Cn1ccnc1[N+](=O)[O-])=NO [Compound IV, 3,3,11,11-tetramethyl-1-(2-nitro-1H-imidazo-1-yl)-4,10-diazatridecan-2,12-dione dioxime]	very little hypoxia selectivity	2.4	–	0.49	0.4 percent injected dose	10.6 percent injected dose	13.7 percent injected dose	12.1 percent injected dose	15.6 percent injected dose	24.3 percent injected dose	50.9 percent injected dose	8.2 percent injected dose	2.0 percent injected dose	60.0 percent injected dose	1.0 percent injected dose	2.7 percent injected dose	2.5 percent injected dose	positive	–
CC(=NO)C(C)(C)NCCCNC(C)(C)C(Cn1ccnc1[N+](=O)[O-])=NO [Compound V, 3,3,9,9-Tetramethyl-1-(2-nitro-1H-imidazo-1-yl)-4,8-diazaundecane-2,10-dione dioxime, reference compound]	–	10	–	8.4	0.3 percent injected dose	7.2 percent injected dose	11.1 percent injected dose	4.1 percent injected dose	25.1 percent injected dose	29.6 percent injected dose	45.9 percent injected dose	4.2 percent injected dose	2.4 percent injected dose	59.3 percent injected dose	4.2 percent injected dose	3.2 percent injected dose	21.5 percent injected dose	positive	–
CC(=NO)C(C)(C)NCCCNC(C)(C)C(C)=NO [Compound X, reference compound]	–	5.1	–	0.50	0.1 percent injected dose	5.0 percent injected dose	11.7 percent injected dose	1.8 percent injected dose	27.9 percent injected dose	34.9 percent injected dose	51.5 percent injected dose	7.9 percent injected dose	2.6 percent injected dose	53.4 percent injected dose	6.8 percent injected dose	2.1 percent injected dose	13.1 percent injected dose	positive	Xanthine oxidase reduction test result (xanthine oxidase [2]; listed as PnAO): reduced by xanthine oxidase; reduction by xanthine oxidase (xanthine oxidase [4]): not reduced; brain uptake ([3]; in vivo, 0.5 min): 1.3 % injected dose
